± gives the expanded uncertainty stated by the source.
Assay: xn = mol fraction of the nth substance listed
Conditions: 303.15 K, 101 kPa, Liquid; for viscosity: Capillary tube (Ostwald / Ubbelohde) method; for excess molar volume: Direct dilatometry; for mass density: Pycnometric method

Cc1ccccc1Cl [2-chlorotoluene] + C[S+](C)[O-]
viscosity (x2 = 0): 0.887 ± 0.023 mPa·s | viscosity (x2 = 0.104): 1.013 ± 0.026 mPa·s | viscosity (x2 = 0.1845): 1.123 ± 0.029 mPa·s | viscosity (x2 = 0.2141): 1.16 ± 0.03 mPa·s | viscosity (x2 = 0.2552): 1.209 ± 0.031 mPa·s | viscosity (x2 = 0.3075): 1.266 ± 0.033 mPa·s | viscosity (x2 = 0.376): 1.342 ± 0.034 mPa·s | viscosity (x2 = 0.4079): 1.375 ± 0.035 mPa·s | viscosity (x2 = 0.5224): 1.49 ± 0.038 mPa·s | viscosity (x2 = 0.551): 1.518 ± 0.039 mPa·s | viscosity (x2 = 0.6005): 1.564 ± 0.04 mPa·s | viscosity (x2 = 0.7241): 1.667 ± 0.043 mPa·s | viscosity (x2 = 0.761): 1.69 ± 0.043 mPa·s | viscosity (x2 = 0.8011): 1.724 ± 0.044 mPa·s | viscosity (x2 = 0.8711): 1.773 ± 0.046 mPa·s | excess molar volume (x2 = 0.104): 1.1e-08 ± 6e-09 m3/mol | excess molar volume (x2 = 0.1845): 2.1e-08 ± 6e-09 m3/mol | excess molar volume (x2 = 0.2141): 2.5e-08 ± 6e-09 m3/mol | excess molar volume (x2 = 0.2552): 2.9e-08 ± 6e-09 m3/mol | excess molar volume (x2 = 0.3075): 3.3e-08 ± 6e-09 m3/mol | excess molar volume (x2 = 0.376): 3.9e-08 ± 6e-09 m3/mol | excess molar volume (x2 = 0.4079): 4.2e-08 ± 6e-09 m3/mol | excess molar volume (x2 = 0.5224): 4.6e-08 ± 6e-09 m3/mol | excess molar volume (x2 = 0.551): 4.5e-08 ± 6e-09 m3/mol | excess molar volume (x2 = 0.6005): 4.2e-08 ± 6e-09 m3/mol | excess molar volume (x2 = 0.7241): 3.1e-08 ± 6e-09 m3/mol | excess molar volume (x2 = 0.761): 2.7e-08 ± 6e-09 m3/mol | excess molar volume (x2 = 0.8011): 2.3e-08 ± 6e-09 m3/mol | excess molar volume (x2 = 0.8711): 1.6e-08 ± 6e-09 m3/mol | mass density (x2 = 0): 1072.81 ± 6.5 kg/m3 | speed of sound (x2 = 0): 1284 ± 8 m/s | speed of sound (x2 = 0.104): 1303 ± 8 m/s | speed of sound (x2 = 0.1845): 1324 ± 8 m/s | speed of sound (x2 = 0.2141): 1330 ± 8 m/s | speed of sound (x2 = 0.2552): 1343 ± 8 m/s | speed of sound (x2 = 0.3075): 1352 ± 8 m/s | speed of sound (x2 = 0.376): 1369 ± 8 m/s | speed of sound (x2 = 0.4079): 1377 ± 8 m/s | speed of sound (x2 = 0.5224): 1403 ± 8 m/s | speed of sound (x2 = 0.551): 1410 ± 8 m/s | speed of sound (x2 = 0.6005): 1422 ± 8 m/s | speed of sound (x2 = 0.7241): 1446 ± 8 m/s | speed of sound (x2 = 0.761): 1450 ± 8 m/s | speed of sound (x2 = 0.8011): 1460 ± 8 m/s | speed of sound (x2 = 0.8711): 1464 ± 9 m/s

Clc1ccc(Cl)c(Cl)c1 [1,2,4-trichlorobenzene] + C[S+](C)[O-]
viscosity (x2 = 0): 1.613 ± 0.041 mPa·s | viscosity (x2 = 0.0911): 1.647 ± 0.042 mPa·s | viscosity (x2 = 0.1214): 1.658 ± 0.043 mPa·s | viscosity (x2 = 0.1805): 1.677 ± 0.043 mPa·s | viscosity (x2 = 0.2144): 1.688 ± 0.043 mPa·s | viscosity (x2 = 0.251): 1.699 ± 0.044 mPa·s | viscosity (x2 = 0.3225): 1.719 ± 0.044 mPa·s | viscosity (x2 = 0.4115): 1.742 ± 0.045 mPa·s | viscosity (x2 = 0.467): 1.755 ± 0.045 mPa·s | viscosity (x2 = 0.5001): 1.763 ± 0.045 mPa·s | viscosity (x2 = 0.5524): 1.773 ± 0.046 mPa·s | viscosity (x2 = 0.6207): 1.786 ± 0.046 mPa·s | viscosity (x2 = 0.7005): 1.796 ± 0.046 mPa·s | viscosity (x2 = 0.7829): 1.801 ± 0.046 mPa·s | viscosity (x2 = 0.8014): 1.802 ± 0.046 mPa·s | viscosity (x2 = 0.9228): 1.803 ± 0.046 mPa·s | excess molar volume (x2 = 0.0911): 1.2e-08 ± 6e-09 m3/mol | excess molar volume (x2 = 0.1214): 1.6e-08 ± 6e-09 m3/mol | excess molar volume (x2 = 0.1805): 2.3e-08 ± 6e-09 m3/mol | excess molar volume (x2 = 0.2144): 2.7e-08 ± 6e-09 m3/mol | excess molar volume (x2 = 0.251): 3.2e-08 ± 6e-09 m3/mol | excess molar volume (x2 = 0.3225): 3.9e-08 ± 6e-09 m3/mol | excess molar volume (x2 = 0.4115): 4.6e-08 ± 6e-09 m3/mol | excess molar volume (x2 = 0.467): 4.8e-08 ± 6e-09 m3/mol | excess molar volume (x2 = 0.5001): 5e-08 ± 6e-09 m3/mol | excess molar volume (x2 = 0.5524): 4.8e-08 ± 6e-09 m3/mol | excess molar volume (x2 = 0.6207): 4.7e-08 ± 6e-09 m3/mol | excess molar volume (x2 = 0.7005): 4e-08 ± 6e-09 m3/mol | excess molar volume (x2 = 0.7829): 3e-08 ± 6e-09 m3/mol | excess molar volume (x2 = 0.8014): 2.8e-08 ± 6e-09 m3/mol | excess molar volume (x2 = 0.9228): 1.2e-08 ± 6e-09 m3/mol | mass density (x2 = 0): 1442.14 ± 12 kg/m3 | speed of sound (x2 = 0): 1260 ± 8 m/s | speed of sound (x2 = 0.0911): 1253 ± 8 m/s | speed of sound (x2 = 0.1214): 1252 ± 8 m/s | speed of sound (x2 = 0.1805): 1257 ± 8 m/s | speed of sound (x2 = 0.2144): 1259 ± 8 m/s | speed of sound (x2 = 0.251): 1264 ± 8 m/s | speed of sound (x2 = 0.3225): 1274 ± 8 m/s | speed of sound (x2 = 0.4115): 1285 ± 8 m/s | speed of sound (x2 = 0.467): 1296 ± 8 m/s | speed of sound (x2 = 0.5001): 1302 ± 8 m/s | speed of sound (x2 = 0.5524): 1316 ± 8 m/s | speed of sound (x2 = 0.6207): 1339 ± 8 m/s | speed of sound (x2 = 0.7005): 1379 ± 8 m/s | speed of sound (x2 = 0.7829): 1415 ± 8 m/s | speed of sound (x2 = 0.8014): 1423 ± 8 m/s | speed of sound (x2 = 0.9228): 1459 ± 8 m/s

C[S+](C)[O-] [dimethyl sulfoxide] + Cc1cccc(Cl)c1
viscosity (x1 = 1): 1.803 ± 0.046 mPa·s | mass density (x1 = 1): 1091.35 ± 6.7 kg/m3 | speed of sound (x1 = 1): 1470 ± 9 m/s

C[S+](C)[O-] [dimethyl sulfoxide] + Cc1ccccc1[N+](=O)[O-]
viscosity (x1 = 1): 1.803 ± 0.046 mPa·s | mass density (x1 = 1): 1091.35 ± 6.7 kg/m3 | speed of sound (x1 = 1): 1470 ± 9 m/s

Cc1ccc(Cl)cc1 [4-chlorotoluene] + C[S+](C)[O-]
viscosity (x2 = 0): 0.9 ± 0.023 mPa·s | viscosity (x2 = 0.0768): 1.039 ± 0.027 mPa·s | viscosity (x2 = 0.1105): 1.094 ± 0.028 mPa·s | viscosity (x2 = 0.1546): 1.16 ± 0.03 mPa·s | viscosity (x2 = 0.2045): 1.232 ± 0.032 mPa·s | viscosity (x2 = 0.2543): 1.287 ± 0.033 mPa·s | viscosity (x2 = 0.3111): 1.351 ± 0.035 mPa·s | viscosity (x2 = 0.3704): 1.41 ± 0.036 mPa·s | viscosity (x2 = 0.4904): 1.521 ± 0.039 mPa·s | viscosity (x2 = 0.5174): 1.544 ± 0.04 mPa·s | viscosity (x2 = 0.554): 1.573 ± 0.04 mPa·s | viscosity (x2 = 0.6014): 1.611 ± 0.041 mPa·s | viscosity (x2 = 0.7074): 1.687 ± 0.043 mPa·s | viscosity (x2 = 0.761): 1.725 ± 0.044 mPa·s | viscosity (x2 = 0.8214): 1.76 ± 0.045 mPa·s | viscosity (x2 = 0.8906): 1.78 ± 0.046 mPa·s | excess molar volume (x2 = 0.0768): 1.3e-08 ± 6e-09 m3/mol | excess molar volume (x2 = 0.1105): 2.3e-08 ± 6e-09 m3/mol | excess molar volume (x2 = 0.1546): 2.9e-08 ± 6e-09 m3/mol | excess molar volume (x2 = 0.2045): 3.5e-08 ± 6e-09 m3/mol | excess molar volume (x2 = 0.2543): 4.1e-08 ± 6e-09 m3/mol | excess molar volume (x2 = 0.3111): 4.8e-08 ± 6e-09 m3/mol | excess molar volume (x2 = 0.3704): 5.2e-08 ± 6e-09 m3/mol | excess molar volume (x2 = 0.4904): 5.7e-08 ± 6e-09 m3/mol | excess molar volume (x2 = 0.5174): 5.7e-08 ± 6e-09 m3/mol | excess molar volume (x2 = 0.554): 5.6e-08 ± 6e-09 m3/mol | excess molar volume (x2 = 0.6014): 5.3e-08 ± 6e-09 m3/mol | excess molar volume (x2 = 0.7074): 4.5e-08 ± 6e-09 m3/mol | excess molar volume (x2 = 0.761): 3.8e-08 ± 6e-09 m3/mol | excess molar volume (x2 = 0.8214): 3.2e-08 ± 6e-09 m3/mol | excess molar volume (x2 = 0.8906): 2e-08 ± 6e-09 m3/mol | mass density (x2 = 0): 1060.54 ± 6.3 kg/m3 | speed of sound (x2 = 0): 1271 ± 8 m/s | speed of sound (x2 = 0.0768): 1292 ± 8 m/s | speed of sound (x2 = 0.1105): 1302 ± 8 m/s | speed of sound (x2 = 0.1546): 1312 ± 8 m/s | speed of sound (x2 = 0.2045): 1327 ± 8 m/s | speed of sound (x2 = 0.2543): 1340 ± 8 m/s | speed of sound (x2 = 0.3111): 1357 ± 8 m/s | speed of sound (x2 = 0.3704): 1372 ± 8 m/s | speed of sound (x2 = 0.4904): 1401 ± 8 m/s | speed of sound (x2 = 0.5174): 1410 ± 8 m/s | speed of sound (x2 = 0.554): 1418 ± 8 m/s | speed of sound (x2 = 0.6014): 1430 ± 8 m/s | speed of sound (x2 = 0.7074): 1453 ± 8 m/s | speed of sound (x2 = 0.761): 1465 ± 9 m/s | speed of sound (x2 = 0.8214): 1467 ± 9 m/s | speed of sound (x2 = 0.8906): 1468 ± 9 m/s

C[S+](C)[O-] [dimethyl sulfoxide] + Cc1cccc([N+](=O)[O-])c1
mass density (x1 = 1): 1091.35 ± 6.7 kg/m3 | speed of sound (x1 = 1): 1470 ± 9 m/s

C[S+](C)[O-] [dimethyl sulfoxide] + Clc1ccccc1Cl
viscosity (x1 = 1): 1.803 ± 0.046 mPa·s | mass density (x1 = 1): 1091.35 ± 6.7 kg/m3 | speed of sound (x1 = 1): 1470 ± 9 m/s

— the NIST ThermoML archive (doi:10.1016/j.jct.2006.04.005)
